The source of these data is patent US10160747B2, “Compounds and methods for kinase modulation, and indications therefor” (Plexxikon Inc., priority 2016, dated 2018).

Assay [1] relates to MOLM-14 D835Y (endogenous FLT3 ITD and transfected FLT3 D835Y). Nature of the assay: MOLM-14 D835Y cell proliferation assay (CellTiter-Glo). Type of assay: cell-based. Particulars: Homo sapiens, MOLM-14, 72 h; 3 d growth, GMean. The essentials: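 MOLM-14 cells (FLT3 ITD) carrying D835Y or F691L, 1×10^4 cells/well, eight 1:3 dilutions from 1 μM final, 0.2% DMSO, 3 days at 37 °C, 5% CO2. Viability by CellTiter-Glo luminescence (ATP content); IC50 from concentration-response.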

A further assay deals with T1, FLT3-ITD (Homo sapiens, UniProt P36888).
T1 sequence (P36888 1-993): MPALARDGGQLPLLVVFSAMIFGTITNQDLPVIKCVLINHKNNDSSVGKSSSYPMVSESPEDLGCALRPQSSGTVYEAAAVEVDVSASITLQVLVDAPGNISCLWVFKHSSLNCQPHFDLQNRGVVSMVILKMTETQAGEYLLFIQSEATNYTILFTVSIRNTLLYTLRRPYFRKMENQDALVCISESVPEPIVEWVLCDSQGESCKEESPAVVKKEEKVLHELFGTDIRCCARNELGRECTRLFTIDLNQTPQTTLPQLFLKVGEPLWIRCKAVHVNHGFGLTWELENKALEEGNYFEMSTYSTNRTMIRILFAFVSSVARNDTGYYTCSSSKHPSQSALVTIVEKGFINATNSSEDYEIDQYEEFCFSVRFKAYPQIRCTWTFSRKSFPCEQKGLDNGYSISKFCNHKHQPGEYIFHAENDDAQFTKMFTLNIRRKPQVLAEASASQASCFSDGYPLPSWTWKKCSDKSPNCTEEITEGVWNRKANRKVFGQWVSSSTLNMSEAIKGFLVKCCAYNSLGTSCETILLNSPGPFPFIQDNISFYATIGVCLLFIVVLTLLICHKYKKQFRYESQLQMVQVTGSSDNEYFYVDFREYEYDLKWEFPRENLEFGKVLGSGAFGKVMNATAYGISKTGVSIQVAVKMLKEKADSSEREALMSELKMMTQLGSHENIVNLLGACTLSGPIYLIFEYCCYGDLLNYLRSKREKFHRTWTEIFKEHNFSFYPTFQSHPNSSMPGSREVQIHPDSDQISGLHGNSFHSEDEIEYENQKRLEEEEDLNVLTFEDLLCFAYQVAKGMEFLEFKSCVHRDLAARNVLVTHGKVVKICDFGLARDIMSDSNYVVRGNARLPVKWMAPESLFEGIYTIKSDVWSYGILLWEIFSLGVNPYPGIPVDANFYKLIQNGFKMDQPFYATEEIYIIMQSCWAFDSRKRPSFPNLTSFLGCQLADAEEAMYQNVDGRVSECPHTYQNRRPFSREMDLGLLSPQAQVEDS
The assay can be described thus: FLT3-ITD recombinant enzyme kinase assay (AlphaScreen). Particulars: 8 pt; read-out: FLT3_ITD 8 pt: IC50. Type of assay: biochemical. The gist of the method:
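Enzyme plus biotinylated poly(Glu4-Tyr) substrate (30 nM) mixed with compound, then ATP added. Donor beads went in for 20 min at room temperature, then PY20 acceptor beads for 60 min. AlphaScreen read; ATP was 10 μM for FLT3-ITD/D835Y and 100 μM for c-KIT.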

For the molecule `COCCn1cc(Nc2ncc(-c3ccc(CC(=O)Nc4ccc(C(F)(F)F)nc4)cc3)cn2)cn1` [Compound P-0273, 2-[4-[2-[[1-(2-methoxyethyl)pyrazol-4-yl]amino]pyrimidin-5-yl]phenyl]-N-[6-(trifluoromethyl)-3-pyridyl]acetamide], the IC50 (in assay [1]; at FLT3-ITD) was 0.0001 to 10 µM in each case.

As for `COc1ncc(NC(=O)Cc2ccc(-c3cnc4[nH]c(C#CC(C)(C)C)cc4c3)cc2)cc1C(F)(F)F` [Compound P-0219, 2-[4-[2-(3,3-dimethylbut-1-ynyl)-1H-pyrrolo[2,3-b]pyridin-5-yl]phenyl]-N-[6-methoxy-5-(trifluoromethyl)-3-pyridyl]acetamide], the 50% inhibitory concentration (IC50) (in assay [1]; on FLT3-ITD) was 0.0001 to 10 µM in each case.

With `COc1cc(-c2cc3cc(-c4ccc(CC(=O)Nc5cncc(C(F)(F)F)c5)cc4F)cnc3[nH]2)ccn1` [Compound P-0200, 2-(3-fluoro-4-(2-(2-methoxypyridin-4-yl)-1H-pyrrolo[2,3-b]pyridin-5-yl)phenyl)-N-(5-(trifluoromethyl)pyridin-3-yl)acetamide], the half-maximal inhibitory concentration (IC50) (in assay [1]; on FLT3-ITD) was 0.0001 to 10 µM each time.

For `O=C(Cc1ccc(-c2cnc(Nc3cnn(C(F)F)c3)nc2)cc1)Nc1cncc(C(F)(F)F)c1` [Compound P-0209, 2-[4-[2-[[1-(difluoromethyl)pyrazol-4-yl]amino]pyrimidin-5-yl]phenyl]-N-[5-(trifluoromethyl)-3-pyridyl]acetamide], the IC50 (in assay [1]; on FLT3-ITD) was 0.0001 to 10 µM throughout.

With `O=C(Cc1ccc(-c2cnc(Nc3cnn(C4CC4)c3)nc2)cc1F)Nc1cncc(C(F)(F)F)c1` [Compound P-0238, 2-[4-[2-[(1-cyclopropylpyrazol-4-yl)amino]pyrimidin-5-yl]-2-fluoro-phenyl]-N-[5-(trifluoromethyl)-3-pyridyl]acetamide], the IC50 (in assay [1]; on FLT3-ITD) was 0.0001 to 10 µM in each case.

As for `CCn1cc(Nc2ncc(-c3ccc(CC(=O)Nc4ccc(C(F)(F)F)cn4)cc3)cn2)cn1` [Compound P-0251, 2-[4-[2-[(1-ethylpyrazol-4-yl)amino]pyrimidin-5-yl]phenyl]-N-[5-(trifluoromethyl)-2-pyridyl]acetamide], the IC50 (in assay [1]; on FLT3-ITD) was 0.0001 to 10 µM each time.

As to `Cn1cnc(Nc2ncc(-c3ccc(CC(=O)Nc4cc(C(F)(F)F)ccn4)cc3F)cn2)c1` [Compound P-0018, 2-[3-fluoro-4-[2-[(1-methylimidazol-4-yl)amino]pyrimidin-5-yl]phenyl]-N-[4-(trifluoromethyl)-2-pyridyl]acetamide], the IC50 (in assay [1]; at FLT3-ITD) was 0.0001 to 10 µM throughout.

`COc1ncc(NC(=O)Cc2ccc(-c3cnc4[nH]nc(NC(=O)C(F)(F)F)c4c3)cc2)cc1C(F)(F)F` [Compound P-0215, 2,2,2-trifluoro-N-[5-[4-[2-[[6-methoxy-5-(trifluoromethyl)-3-pyridyl]amino]-2-oxo-ethyl]phenyl]-1H-pyrazolo[3,4-b]pyridin-3-yl]acetamide]: the IC50 (in assay [1]; at FLT3-ITD) was 0.0001 to 10 µM each time.

Consider `O=C(Cc1ccc(-c2cnc(Nc3cnn(C(F)F)c3)nc2)cc1)Nc1cc(C(F)(F)F)ccn1` [Compound P-0023, 2-[4-[2-[[1-(difluoromethyl)pyrazol-4-yl]amino]pyrimidin-5-yl]phenyl]-N-[4-(trifluoromethyl)-2-pyridyl]acetamide], for which the IC50 (in assay [1]; at FLT3-ITD) was 0.0001 to 10 µM each time.

Turning to `Cn1cc(Nc2ncc(-c3cc(F)c(CC(=O)Nc4cncc(C(F)(F)F)c4)cc3F)cn2)cn1` [Compound P-0207, 2-[2,5-difluoro-4-[2-[(1-methylpyrazol-4-yl)amino]pyrimidin-5-yl]phenyl]-N-[5-(trifluoromethyl)-3-pyridyl]acetamide], the IC50 (in assay [1]; at FLT3-ITD) was 0.0001 to 10 µM each time.

`COCCn1cc(Nc2ncc(-c3ccc(CC(=O)Nc4cncc(C(F)(F)F)c4)c(F)c3)cn2)cn1` [Compound P-0267, 2-[2-fluoro-4-[2-[[1-(2-methoxyethyl)pyrazol-4-yl]amino]pyrimidin-5-yl]phenyl]-N-[5-(trifluoromethyl)-3-pyridyl]acetamide]: the concentration for half-maximal inhibition (IC50) (in assay [1]; on FLT3-ITD) was 0.0001 to 10 µM each time.

As to `COc1ncc(NC(=O)Cc2ccc(-c3cnc4[nH]c(C#Cc5cncn5C)cc4c3)cc2)cc1C(F)(F)F` [Compound P-0227, N-[6-methoxy-5-(trifluoromethyl)-3-pyridyl]-2-[4-[2-[2-(3-methylimidazol-4-yl)ethynyl]-1H-pyrrolo[2,3-b]pyridin-5-yl]phenyl]acetamide], the IC50 (in assay [1]; at FLT3-ITD) was 0.0001 to 10 µM each time.

As for `Cc1ncc(NC(=O)Cc2ccc(-c3cnc(Nc4cnn(C5CC5)c4)nc3)cc2)cc1C(F)(F)F` [Compound P-0232, 2-[4-[2-[(1-cyclopropylpyrazol-4-yl)amino]pyrimidin-5-yl]phenyl]-N-[6-methyl-5-(trifluoromethyl)-3-pyridyl]acetamide], the IC50 (in assay [1]; on FLT3-ITD) was 0.0001 to 10 µM throughout.

`Cn1cnc(Nc2ncc(-c3cc(F)c(CC(=O)Nc4cc(C(F)(F)F)ccn4)cc3F)cn2)c1` [Compound P-0020, 2-[2,5-difluoro-4-[2-[(1-methylimidazol-4-yl)amino]pyrimidin-5-yl]phenyl]-N-[4-(trifluoromethyl)-2-pyridyl]acetamide]: the half-maximal inhibitory concentration (IC50) (in assay [1]; at FLT3-ITD) was 0.0001 to 10 µM in each case.

`CCn1cc(Nc2ncc(-c3ccc(CC(=O)Nc4cc(C(F)(F)F)ccn4)c(F)c3)cn2)cn1` [Compound P-0255, 2-[4-[2-[(1-ethylpyrazol-4-yl)amino]pyrimidin-5-yl]-2-fluoro-phenyl]-N-[4-(trifluoromethyl)-2-pyridyl]acetamide]: the half-maximal inhibitory concentration (IC50) (in assay [1]; at FLT3-ITD) was 0.0001 to 10 µM each time.

As for `Cc1ncc(NC(=O)Cc2ccc(-c3cnc(Nc4cnn(C(F)F)c4)nc3)cc2)cc1C(F)(F)F` [Compound P-0210, 2-[4-[2-[[1-(difluoromethyl)pyrazol-4-yl]amino]pyrimidin-5-yl]phenyl]-N-[6-methyl-5-(trifluoromethyl)-3-pyridyl]acetamide], the IC50 (in assay [1]; at FLT3-ITD) was 0.0001 to 10 µM throughout.

Regarding `CCn1cc(Nc2ncc(-c3ccc(CC(=O)Nc4ccc(C(F)(F)F)nc4)c(F)c3)cn2)cn1` [Compound P-0257, 2-[4-[2-[(1-ethylpyrazol-4-yl)amino]pyrimidin-5-yl]-2-fluoro-phenyl]-N-[6-(trifluoromethyl)-3-pyridyl]acetamide], the half-maximal inhibitory concentration (IC50) (in assay [1]; on FLT3-ITD) was 0.0001 to 10 µM throughout.

Take `CCOc1n[nH]c2ncc(-c3ccc(CC(=O)Nc4cnc(C)c(C(F)(F)F)c4)cc3)cc12` [Compound P-0217, 2-[4-(3-ethoxy-1H-pyrazolo[3,4-b]pyridin-5-yl)phenyl]-N-[6-methyl-5-(trifluoromethyl)-3-pyridyl]acetamide]: the IC50 (in assay [1]; on FLT3-ITD) was 0.0001 to 10 µM throughout.

Regarding `CCn1cc(Nc2ncc(-c3ccc(CC(=O)Nc4cnc(OC)c(C(F)(F)F)c4)c(F)c3)cn2)cn1` [Compound P-0259, 2-[4-[2-[(1-ethylpyrazol-4-yl)amino]pyrimidin-5-yl]-2-fluoro-phenyl]-N-[6-methoxy-5-(trifluoromethyl)-3-pyridyl]acetamide], the half-inhibitory concentration (IC50) (in assay [1]; on FLT3-ITD) was 0.0001 to 10 µM throughout.

Take `COCCn1cc(Nc2ncc(-c3ccc(CC(=O)Nc4ccc(C(F)(F)F)cn4)cc3)cn2)cn1` [Compound P-0274, 2-[4-[2-[[1-(2-methoxyethyl)pyrazol-4-yl]amino]pyrimidin-5-yl]phenyl]-N-[5-(trifluoromethyl)-2-pyridyl]acetamide]: the IC50 (in assay [1]; at FLT3-ITD) was 0.0001 to 10 µM each time.

`COCCn1cc(Nc2ncc(-c3ccc(CC(=O)Nc4cnc(Cl)c(C(F)(F)F)c4)c(F)c3)cn2)cn1` [Compound P-0266, N-[6-chloro-5-(trifluoromethyl)-3-pyridyl]-2-[2-fluoro-4-[2-[[1-(2-methoxyethyl)pyrazol-4-yl]amino]pyrimidin-5-yl]phenyl]acetamide]: the IC50 (in assay [1]; on FLT3-ITD) was 0.0001 to 10 µM throughout.
